US20220192955A1, “AZOXYSTROBIN EFFICACY IN SCALP HEALTH” (The Procter & Gamble Company, priority 2020, published 2022)

Key:
human scalp (dandruff) = assay: In vivo scalp health study: adherent scalp flaking score (ASFS)
Protocol: Subjects are enrolled in a double-blind, randomized study for all test groups and have Baseline and Week 3 measurements of scalp health taken for flaking, itch and scalp health endpoints. Subjects take home a test product(s) and are instructed on use of test products throughout the study. Test products are solubilized in a hydroalcoholic leave-on formulation. Azoxystrobin raw material is sourced from AK Scientific Inc. (Union City, Calif.) as >97% pure. Azoxystrobin scalp treatment is prepared from a slurry of azoxystrobin in ethanol that is formulated to 0.1% (w/v) in a base chassis of 50% ethanol, 0.35% Ultrez 21 (rheology modifier), 0.05% neutrol TE and water (q.s.). Vehicle scalp treatment is prepared similarly without the addition of azoxystrobin raw material. Subjects apply either azoxystrobin or vehicle scalp treatments daily for 3 weeks. Grading of the scalp is performed by qualified expert graders for adherent scalp flaking scores (ASFS) as described in published methods. Detailed methods can be found in Journal of Dermatological Treatment 2014, 25, 232-236, incorporated by reference herein. Briefly, flaking severity of a subject is assessed by examination of the scalp which is illuminated by lighting that mimics daylight conditions. The scalp is divided into eight sections and each section is assessed for the presence of dandruff flakes that are adhering to the scalp skin using a 0 to 10 (increment of 2 units) scale. Loose flakes in the hair are not considered in the grading. The final, or total, ASFS is the sum of the grades for all eight scalp sections, which results in a scale ranging from 0 to 80 units. The change in flaking across time is reported as change from baseline at the 3-week time point.

Histamine = assay: Scalp tape strip histamine (HPLC/MS/MS); assay type: in vivo, human
Protocol: Subjects are enrolled in a double-blind, randomized study for all test groups and have Baseline and Week 3 measurements of scalp health taken for flaking, itch and scalp health endpoints. Subjects take home a test product(s) and are instructed on use of test products throughout the study. Test products are solubilized in a hydroalcoholic leave-on formulation. Azoxystrobin raw material is sourced from AK Scientific Inc. (Union City, Calif.) as >97% pure. Azoxystrobin scalp treatment is prepared from a slurry of azoxystrobin in ethanol that is formulated to 0.1% (w/v) in a base chassis of 50% ethanol, 0.35% Ultrez 21 (rheology modifier), 0.05% neutrol TE and water (q.s.). […]
Biomarkers of scalp health, including biomarkers of inflammation, itch, oxidative stress and barrier integrity are assessed by non-invasive tape strip sampling of the scalp surface to determine therapeutic resolution. All biomarkers are analyzed from D-Squame® scalp tape samples that are collected from the scalp of subjects before and after scalp treatment with either azoxystrobin or vehicle (Baseline, and Week 3 respectively). These are extracted and analyzed according to published methods (International Journal of Dermatology 2011, 50, 102-113, incorporated by reference herein). […]
Histamine is analyzed by gradient reversed-phase HPLC/MS/MS to evaluate scalp itch. […]

Q: Which results are given for CO/C=C(/C(=O)OC)c1ccccc1Oc1cc(Oc2ccccc2C#N)ncn1 [Azoxystrobin]?
A: Flaking Results (ASFS Change from Baseline) (human scalp (dandruff); 0.1% (w/v) hydroalcoholic leave-on, daily, 3 weeks, dandruff subjects, scale 0 to 80): −13.88; reduction in flaking (human scalp (dandruff); after 3 weeks of treatment): 45%; ASFS reduction more than the placebo (human scalp (dandruff); after 3 weeks of treatment, p=0.002): 4.7 units; Histamine Results % Change from Baseline (Histamine; 0.1% leave-on daily, Week 3, scalp tape strips): 23.8%; histamine reduction compared to placebo control or baseline values (in words) (Histamine; 3 weeks of treatment): does not significantly reduce histamine
